From paper PMC11566078, “Bactericidal activities and biochemical features of 16 antimicrobial peptides against bovine-mastitis causative pathogens” (Veterinary Research, 2024)
Read-outs that look alike come from different tables or passages of the source. Where no end group is shown, it is not given here.

Assays:
[1] = test system: Bacillus cereus ATCC 10876; assay: microbe, parasite or virus in culture; type: cell-based; settings: ATCC 10876, 6 h
In short: (§1)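 Strains grown in LB medium, except E. faecalis and streptococci, which were grown in brain heart infusion broth. Run in triplicate.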

[2] = test system: Enterococcus faecalis ATCC 29212; assay: microbe, parasite or virus in culture; type: cell-based; settings: ATCC 29212, 6 h
In short: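 Bacteria are grown in LB, except E. faecalis and streptococci, which use BHI broth. Each antimicrobial test is done in triplicate.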

[3] = test system: Pseudomonas aeruginosa ATCC 27853; assay: microbe, parasite or virus in culture; type: cell-based; settings: ATCC 27853, 6 h
In short: (§2)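 Triplicate antimicrobial testing. Media: BHI for streptococci and E. faecalis, LB otherwise.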

[4] = test system: Staphylococcus aureus ATCC 6538; assay: microbe, parasite or virus in culture; type: cell-based; settings: ATCC 6538, 6 h
In short: as §1

[5] = test system: Streptococcus agalactiae ATCC 27956; assay: microbe, parasite or virus in culture; type: cell-based; settings: ATCC 27956, 6 h
In short: as §2

[6] = test system: Streptococcus dysgalactiae ATCC 27957; assay: microbe, parasite or virus in culture; type: cell-based; settings: ATCC 27957, 6 h
In short: as §2

[7] = test system: Streptococcus equi subsp. zooepidemicus ATCC 43079; assay: microbe, parasite or virus in culture; type: cell-based; settings: ATCC 43079, 6 h
In short: as §2

Aeromonas hydrophila = assay: microbe, parasite or virus in culture; type: cell-based; settings: 6 h
Description: (§3) All plates were cultivated aerobically.
(§4) Experiments were conducted in triplicate.

Corynebacterium simulans = assay: microbe, parasite or virus in culture; type: cell-based; settings: 6 h
Description: as §3, §4

[8] = test system: Glutamicibacter halophytocola; assay: microbe, parasite or virus in culture; type: cell-based; settings: 6 h
Description: as §3, §4

[9] = test system: Staphylococcus chromogenes; assay: microbe, parasite or virus in culture; type: cell-based; settings: 6 h
Description: as §3, §4

[10] = test system: Staphylococcus epidermidis; assay: microbe, parasite or virus in culture; type: cell-based; settings: 6 h
Description: as §3, §4

Staphylococcus xylosus = assay: microbe, parasite or virus in culture; type: cell-based; settings: 6 h
Description: as §3, §4

Streptococcus uberis = assay: microbe, parasite or virus in culture; type: cell-based; settings: 6 h
Description: as §3, §4

E. coli (ATCC 25922) [11] = type: cell-based, Escherichia coli; settings: ATCC 25922
Description: as §4
(§5) The MICs against E. coli (ATCC 25922) for cc-CATH3, ML-CATH, and PD-CATH in 150 mM NaCl and different pH (pH 5, 6, and 7) that were adjusted using acetic acid (Sigma Aldrich) were determined as described above. For serum stability assay, each AMP at four different concentrations was dissolved in 50% (v/v) FBS (Hyclone™) and incubated at 37 °C for 0, 60, and 120 min, respectively. As described in a previous study, ΔHg-CATH was used as a control for serum sensitivity. The antimicrobial activity of cc-CATH3, ML-CATH, and PD-CATH against E. coli was assessed for each condition as above. All experiments were conducted in triplicate.

E. coli (ATCC 25922) [12] = type: in vitro ADME, Escherichia coli
Description: as §5
Figure 2 Changes in the antibacterial activity of cc-CATH3, ML-CATH, and PD-CATH after incubation with naïve serum. cc-CATH3, ML-CATH, and PD-CATH peptides were incubated in 50% (v/v) FBS each for 0, 60, and 120 min before applying to antimicrobial activity assay against E. coli (ATCC 25922). The antimicrobial activity was determined by measuring bacterial growth at OD 450 nm. The X and Y axes indicate peptide concentration and absorbance at 450 nm, respectively. Samples containing 50% FBS in the absence of the peptides indicate a control for bacterial growth without AMP treatments. The antimicrobial activity of cc-CATH3 (A), ML-CATH (B), and PD-CATH (C) after the treatment of FBS-incubated AMPs was shown.

bovine erythrocytes = assay: Haemolytic activity; type: cell-based; settings: OD 410 nm, repeated three times
Description: The experimental procedures were conducted in accordance with the guidelines approved by the Institutional Animal Care and Use Committee (IACUC) of Konkuk University, Seoul, Korea, and bovine blood was collected from a cow at a local farm using a BD Vacutainer® Sodium Heparin (BD Bioscience) to analyse haemolytic activity. Plasma was removed from the whole blood by centrifugation. Erythrocytes were washed thrice with phosphate-buffered saline (PBS, pH 7.4) and resuspended in PBS at a concentration of 2% (v/v). Subsequently, 100 µL of the erythrocyte suspension was added to each well of a 96-well microtiter plate. The plate contained an equal volume of the peptides in PBS with different concentrations of 10, 20, 40, 80, and 160 μg/mL. Triton-X 100 (1%) and PBS were used as positive and negative controls, respectively. Plates were incubated at 37 °C for 1 h. The release of haemoglobin into the supernatant was monitored by measuring the change in OD at 410 nm using a microplate reader (xMark™ spectrophotometer; Bio-Rad). Results from three independent experiments were pooled. Hemolysis was calculated using the formula: HemolyticPercentage(%)=100×(ODpeptide-ODnegative)/(ODpositive-ODnegative)
All experiments were carried out in triplicate.

[13] = test system: eight standard bacterial strains; type: cell-based; settings: all eight standard strains; range stated for the three peptides
Description: The standard bacterial strains used for antimicrobial activity assays include Staphylococcus aureus ATCC (American Type Culture Collection, Manassas, VA, USA) 6538, Bacillus cereus ATCC 10876, Enterococcus faecalis ATCC 29212, Streptococcus […] 27956, Streptococcus dysgalactiae ATCC 27957, Streptococcus equi subsp. zooepidemicus ATCC 43079, Escherichia coli ATCC 25922, and Pseudomonas aeruginosa ATCC 27853. Most bacterial strains were cultured in LB medium except for E. faecalis and streptococci, which were cultivated in brain heart infusion (BHI) broth (BD Bioscience). […] Experiments were conducted in triplicate.

[14] = test system: all bacterial strains in the panel and field isolates from milk; type: cell-based; settings: against all bacterial strains in the panel and field isolates from milk
Description: The standard bacterial strains used for antimicrobial activity assays include Staphylococcus aureus ATCC (American Type Culture Collection, Manassas, VA, USA) 6538, Bacillus cereus ATCC 10876, Enterococcus faecalis ATCC 29212, Streptococcus agalactiae ATCC 27956, Streptococcus dysgalactiae ATCC 27957, Streptococcus equi subsp. zooepidemicus ATCC 43079, Escherichia coli ATCC 25922, and Pseudomonas aeruginosa ATCC 27853. Most bacterial strains were cultured in LB medium except for E. faecalis and streptococci, which were cultivated in brain heart infusion (BHI) broth (BD Bioscience).
as §3, §4

[15] = test system: field isolates from milk with high SCCs; settings: all field isolates except A. hydrophila; range stated for the three peptides
Description: The minimum inhibitory concentration (MIC) was determined by following the manufacturer’s protocol and Clinical and Laboratory Standards Institute (CLSI) guidelines (2018) using a colourimetric method specified by the Microbial Viability Assay Kit-WST (Dojindo, Kumamoto, Japan). Four colonies of each bacterium were inoculated into 5 mL of LB medium and incubated at 37 °C for 4–6 h. The cells were then washed twice with sterile saline (0.9% NaCl) and seeded into a single well of a 96-well plate at a density of 1.5 × 10^5 cells/well, adjusting by McFarland standard 0.5. Subsequently, 180 µL/well of fresh MH broth (BD Bioscience) was added to the plate. Ampicillin, chloramphenicol, and gentamicin sulfate were used as controls for antimicrobial activity.
Different concentrations of each peptide and reference antibiotics (up to 40 µg/mL) were serially diluted in 10 µL of MH broth and added to each well. The plate was incubated at 37 °C for 6 h, using BHI broth to culture slow-growing fastidious strains, including E. faecalis, A. hydrophila, C. simulans, G. halophytocola, and streptococci. Cation-adjusted Mueller Hinton II broth (CAMHB) was employed to cultivate P. aeruginosa. Afterwards, 10 µL of the colouring reagent was added, and cells were incubated at 37 °C for 2 h. UV absorbance was measured for each well at 450 nm using a microplate spectrophotometer (xMark spectrophotometer; Bio-Rad, Hercules, CA, USA). The MIC values were determined when the absorbance difference between treatments and blanks (media and colouring reagent only) decreased to < 0.05. Experiments were conducted in triplicate.

PK15 cells [16] = assay: Cytotoxicity, WST-1 cell viability; settings: 24 h, 37 °C, repeated three times
Description: (§6) Human keratinocytes (HaCaT) and pig kidney fibroblast cells (PK15, ATCC CCL-33) were cultured in Dulbecco’s modified Eagle’s medium (DMEM; Hyclone™, Logan, UT, USA) and supplemented with 10% foetal bovine serum (FBS; Hyclone™, Logan, UT, USA), 1% penicillin–streptomycin (Hyclone™) at 37 °C, and 5% CO2 up to 80% confluence. Cell substratum adhesion was disrupted using Accutase (Innovative Cell Technologies, San Diego, CA, USA). A total of 4 × 10^4 cells were incubated for 24 h at 37 °C and 5% CO2 in each well of a 96-well plate containing 64 and 160 µg/mL of each peptide.
(§7) A positive control for complete cell lysis was established using Triton-X100 (1%), and untreated cells were used as the negative control. After incubation, the medium was removed from the wells and replaced with 10 µL of colouring solution (Cell Proliferation Reagent WST-1™) and 100 µL of DMEM (Hyclone™), per the manufacturer’s protocol. Each well absorbance was measured at 440 nm (peptide-treated and control) and 650 nm (background). These measurements were recorded as the optical density (OD) using a microplate reader (xMark™ spectrophotometer; Bio-Rad, CA, USA). Cell viability was calculated using the following equation: CellViability(%)=100×(ODpeptide-ODbackground)/(ODnegative-ODbackground)
(§8) All experiments were performed in triplicate.

HaCaT cells [17] = assay: Cytotoxicity, WST-1 cell viability; settings: 24 h, 37 °C, repeated three times
Description: as §6, §7, §8

PK15 cells [18] = test system: PK15 cells
Description: as §6, §7, §8

HaCaT cells [19] = test system: HaCaT cells
Description: as §6, §7, §8

Description for PK15 and HaCaT cells: as §6, §7, §8

## RVRRFWPLVPVAINTVAAGINLYKAIRRK [cc-CATH3]
[1]
  Minimal inhibitory concentration, Bacillus cereus: 4 (1.28) μg/mL
[2]
  Minimal inhibitory concentration, Enterococcus faecalis: 5 (1.5) μg/mL
[3]
  Minimal inhibitory concentration, Pseudomonas aeruginosa: 4 (1.28) μg/mL
[4]
  Minimal inhibitory concentration, Staphylococcus aureus: 2 (0.6) μg/mL
[5]
  Minimal inhibitory concentration, Streptococcus agalactiae: 4 (1.28) μg/mL
[6]
  Minimal inhibitory concentration, Streptococcus dysgalactiae: 7 (2.0) μg/mL
[7]
  Minimal inhibitory concentration, Streptococcus equi subsp. zooepidemicus: 5 (1.5) μg/mL
Aeromonas hydrophila
  Minimal inhibitory concentration, Aeromonas hydrophila: > 160 (47.4) μg/mL
Corynebacterium simulans
  Minimal inhibitory concentration, Corynebacterium simulans: 0.8 (0.2) μg/mL
[8]
  Minimal inhibitory concentration, Glutamicibacter halophytocola: 2 (0.6) μg/mL
[9]
  Minimal inhibitory concentration, Staphylococcus chromogenes: 3 (0.9) μg/mL
[10]
  Minimal inhibitory concentration, Staphylococcus epidermidis: 2 (0.6) μg/mL
Staphylococcus xylosus
  Minimal inhibitory concentration, Staphylococcus xylosus: 2 (0.6) μg/mL
Streptococcus uberis
  Minimal inhibitory concentration, Streptococcus uberis: 4 (1.2) μg/mL
E. coli (ATCC 25922) [11]
  Minimal inhibitory concentration against E. coli, 150 mM NaCl: 1.6 µM
E. coli (ATCC 25922) [12]
  antibacterial activity after incubation with serum: significantly affected in concentrations lower than 3 × MIC
Bovine erythrocytes; 10 μg/mL, 2% (v/v) erythrocytes in PBS pH 7.4, 37 °C 1 h, mean ± SD
  Haemolytic activity against bovine erythrocytes: 0.0 ± 0.1%
Bovine erythrocytes; 20 μg/mL, 2% erythrocytes in PBS pH 7.4, 37 °C 1 h
  Haemolytic activity against bovine erythrocytes: 0.0 ± 0.1%
Bovine erythrocytes; 40 μg/mL, 2% erythrocytes in PBS pH 7.4, 37 °C 1 h
  Haemolytic activity against bovine erythrocytes: 0.4 ± 0.2%
Bovine erythrocytes; 80 μg/mL, 2% erythrocytes in PBS pH 7.4, 37 °C 1 h
  Haemolytic activity against bovine erythrocytes: 0.8 ± 0.1%
[13]
  MICs, range over all bacterial species in the test panel: 2 to 42 µg/mL
[14]
  minimum inhibitory concentration, range over strains: 0.2 to 10.3 µM
[15]
  MICs, range over field isolates: 0.8 to 5 µg/mL
PK15 and HaCaT cells
  cell viability of PK15 and HaCaT: 91.1 ± 1.8% to 100.6 ± 0.4
PK15 cells [16]; 64 μg/mL peptide
  Cell viability ± SD, PK15: 91.1 ± 1.8%
PK15 cells [16]; 160 μg/mL peptide
  Cell viability ± SD, PK15: 32.7 ± 3.5%
HaCaT cells [17]; 64 μg/mL peptide
  Cell viability ± SD, HaCaT: 100.6 ± 0.4%
HaCaT cells [17]; 160 μg/mL peptide
  Cell viability ± SD, HaCaT: 90.1 ± 4.8%

## Triton X-100 [Triton X-100 (1%)]
PK15 cells [18]
  Cell viability ± SD, PK15: 13.3 ± 0.1%
HaCaT cells [19]
  Cell viability ± SD, HaCaT: 13.0 ± 0.4%
